# Active and inactive are the calls of the source. The rule behind the calls is not given here.
# Key:
# Mus musculus [1] = test: In vivo agonist activity against PPARalpha/delta assessed as upregulation of Cpt2 mRNA expression in C57BL/6Nifdc mouse skeletal muscle at 10 mg/kg, po for 4 days; assay type: functional, organism-based; settings: time 4.0 day
# C2C12 [2] = test: Agonist activity against PPARalpha/delta (unknown origin) assessed as upregulation of Angpt14 mRNA expression in […] cells at 8 nM incubated for 12 hrs by RT-PCR analysis; assay type: cell-based; settings: filed as agonist
# Mus musculus [3] = test: Anti-fibrosis effect in HF-CDAA-induced nonalcoholic steatohepatitis C57BL/6JNifdc mouse model assessed as expression of Acta2 marker at 10 mg/kg, po after 20 hrs by Western blot analysis; assay type: functional, organism-based
# Mus musculus [4] = test: In vivo agonist activity at PPARalpha/delta assessed as upregulation of Lpin2 mRNA expression in C57BL/6Nifdc mouse liver at 10 mg/kg, po for 4 days; assay type: functional, organism-based; settings: time 4.0 day
# Mus musculus [5] = test: Anti-inflammatory activity in HF-CDAA-induced nonalcoholic steatohepatitis C57BL/6JNifdc mouse model assessed as decrease in Il1b mRNA expression at 10 mg/kg, po; assay type: functional, organism-based
# AML12 = test: Agonist activity against PPARalpha/delta (unknown origin) assessed as upregulation of Cpt1A mRNA expression in […] cells at 8 nM incubated for 12 hrs by RT-PCR analysis; assay type: cell-based; settings: filed as agonist
# COS7 = test: Agonist activity at human FXR (193 to 486 residues) in Cos7 cells transfected with LBD-Gal4 and pGL435 Gal4 UAS Luc reporter plasmid at 10 uM by reporter gene assay; assay type: cell-based
# THP-1 = test: Anti-inflammatory activity in human THP1-derived macrophages assessed as decrease in secretion of LPS-induced TNF-alpha level at 8 to 200 nM for 12 hrs by ELISA kit method; assay type: functional, cell-based; settings: dose 8-200 nM
# [6] = target: Voltage-gated inwardly rectifying potassium channel KCNH2 (Homo sapiens, UniProt Q12809); test: Inhibition of hERG potassium channel in HEK293 cells upto 30 uM by whole-cell patch clamp assay; assay type: toxicity, cell-based
# HepG2 = test: Agonist activity against PPARalpha/delta (unknown origin) assessed as upregulation of PDK4 mRNA expression in human HepG2 cells at 8 nM incubated for 12 hrs by RT-PCR analysis; assay type: cell-based; settings: filed as agonist
# Mus musculus [7] = test: In vivo agonist activity against PPARalpha/delta assessed as upregulation of Cd36 mRNA expression in C57BL/6Nifdc mouse skeletal muscle at 10 mg/kg, po for 4 days; assay type: functional, organism-based; settings: time 4.0 day
# Mus musculus [8] = test: In vivo agonist activity against PPARalpha/delta assessed as upregulation of Me1 mRNA expression in C57BL/6Nifdc mouse liver at 10 mg/kg, po for 4 days; assay type: functional, organism-based; settings: time 4.0 day
# Mus musculus [9] = test: In vivo agonist activity at PPARalpha/delta assessed as upregulation of Csnk1g2 mRNA expression in C57BL/6Nifdc mouse liver at 10 mg/kg, po for 4 days; assay type: functional, organism-based; settings: time 4.0 day
# Mus musculus [10] = test: In vivo agonist activity against PPARalpha/delta assessed as upregulation of Acot1 mRNA expression in C57BL/6Nifdc mouse skeletal muscle at 10 mg/kg, po for 4 days; assay type: functional, organism-based; settings: time 4.0 day
# [11] = target: T1, Peroxisome proliferator-activated receptor delta (Mus musculus, UniProt P35396); test: Agonist activity at mouse PPARdelta in Cos7 cells transfected with pBIND and pGL4.35 Gal4 UAS Luc reporter plasmid by measuring luciferase activity incubated for 16 hrs by luciferase reporter gene assay
# T1 sequence (P35396 whole entry): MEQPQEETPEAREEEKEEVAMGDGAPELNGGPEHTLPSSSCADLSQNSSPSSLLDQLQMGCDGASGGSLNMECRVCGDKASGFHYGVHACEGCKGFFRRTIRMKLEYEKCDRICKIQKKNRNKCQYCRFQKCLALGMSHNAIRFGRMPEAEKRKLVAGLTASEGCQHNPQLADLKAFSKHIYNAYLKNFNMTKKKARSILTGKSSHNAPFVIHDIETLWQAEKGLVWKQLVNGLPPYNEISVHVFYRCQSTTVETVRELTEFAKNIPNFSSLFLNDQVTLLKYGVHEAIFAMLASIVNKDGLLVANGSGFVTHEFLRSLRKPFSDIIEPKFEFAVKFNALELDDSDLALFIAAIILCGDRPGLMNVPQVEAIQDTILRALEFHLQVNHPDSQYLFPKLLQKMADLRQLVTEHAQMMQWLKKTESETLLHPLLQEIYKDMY
# Mus musculus [12] = test: Anti-NASH activity in HF-CDAA-induced nonalcoholic steatohepatitis C57BL/6JNifdc mouse model assessed as reduction in steatosis by measuring hepatic triglyceride level at 3 to 30 mg/kg, po; assay type: functional, organism-based; settings: dose 3-30 mg/kg
# Mus musculus [13] = test: In vivo agonist activity against PPARalpha/delta assessed as upregulation of Pdk4 mRNA expression in C57BL/6Nifdc mouse skeletal muscle at 10 mg/kg, po for 4 days; assay type: functional, organism-based; settings: time 4.0 day
# Mus musculus [14] = test: Anti-NASH activity in HF-CDAA-induced nonalcoholic steatohepatitis C57BL/6JNifdc mouse model assessed as decrease in level of serum AST 10 mg/kg, po by automatic biochemical analysis; assay type: functional, organism-based
# Mus musculus [15] = test: Anti-inflammatory activity in HF-CDAA-induced nonalcoholic steatohepatitis C57BL/6JNifdc mouse model assessed as decrease in Tnf mRNA expression at 10 mg/kg, po; assay type: functional, organism-based
# Mus musculus [16] = test: In vivo agonist activity at PPARalpha/delta assessed as upregulation of Akr1c18 mRNA expression in C57BL/6Nifdc mouse liver at 10 mg/kg, po for 4 days; assay type: functional, organism-based; settings: time 4.0 day
# Mus musculus [17] = test: In vivo agonist activity against PPARalpha/delta assessed as upregulation of Plin5 mRNA expression in C57BL/6Nifdc mouse skeletal muscle at 10 mg/kg, po for 4 days; assay type: functional, organism-based; settings: time 4.0 day
# Mus musculus [18] = test: In vivo agonist activity against PPARalpha/delta assessed as upregulation of -Retsat mRNA expression in C57BL/6Nifdc mouse skeletal muscle at 10 mg/kg, po for 4 days; assay type: functional, organism-based; settings: time 4.0 day
# Mus musculus [19] = test: In vivo agonist activity at PPARalpha/delta assessed as upregulation of Mfn2 mRNA expression in C57BL/6Nifdc mouse liver at 10 mg/kg, po for 4 days; assay type: functional, organism-based; settings: time 4.0 day
# C2C12 [20] = test: Agonist activity against PPARalpha/delta (unknown origin) assessed as upregulation of Pdk4 mRNA expression in […] cells at 8 nM incubated for 12 hrs by RT-PCR analysis; assay type: cell-based; settings: filed as agonist
# Mus musculus [21] = test: In vivo agonist activity at PPARalpha/delta assessed as upregulation of Lpf5 mRNA expression in C57BL/6Nifdc mouse liver at 10 mg/kg, po for 4 days; assay type: functional, organism-based; settings: time 4.0 day
# Mus musculus [22] = test: In vivo agonist activity at PPARalpha/delta assessed as upregulation of Fads2 mRNA expression in C57BL/6Nifdc mouse liver at 10 mg/kg, po for 4 days; assay type: functional, organism-based; settings: time 4.0 day
# Mus musculus [23] = test: In vivo agonist activity against PPARalpha/delta assessed as upregulation of Ugt1a9 mRNA expression in C57BL/6Nifdc mouse liver at 10 mg/kg, po for 4 days; assay type: functional, organism-based; settings: time 4.0 day
# Mus musculus [24] = test: In vivo agonist activity at PPARalpha/delta assessed as upregulation of Kit11 mRNA expression in C57BL/6Nifdc mouse liver at 10 mg/kg, po for 4 days; assay type: functional, organism-based; settings: time 4.0 day
# Voltage-gated inwardly rectifying potassium channel KCNH2, sequence (Q12809 whole entry): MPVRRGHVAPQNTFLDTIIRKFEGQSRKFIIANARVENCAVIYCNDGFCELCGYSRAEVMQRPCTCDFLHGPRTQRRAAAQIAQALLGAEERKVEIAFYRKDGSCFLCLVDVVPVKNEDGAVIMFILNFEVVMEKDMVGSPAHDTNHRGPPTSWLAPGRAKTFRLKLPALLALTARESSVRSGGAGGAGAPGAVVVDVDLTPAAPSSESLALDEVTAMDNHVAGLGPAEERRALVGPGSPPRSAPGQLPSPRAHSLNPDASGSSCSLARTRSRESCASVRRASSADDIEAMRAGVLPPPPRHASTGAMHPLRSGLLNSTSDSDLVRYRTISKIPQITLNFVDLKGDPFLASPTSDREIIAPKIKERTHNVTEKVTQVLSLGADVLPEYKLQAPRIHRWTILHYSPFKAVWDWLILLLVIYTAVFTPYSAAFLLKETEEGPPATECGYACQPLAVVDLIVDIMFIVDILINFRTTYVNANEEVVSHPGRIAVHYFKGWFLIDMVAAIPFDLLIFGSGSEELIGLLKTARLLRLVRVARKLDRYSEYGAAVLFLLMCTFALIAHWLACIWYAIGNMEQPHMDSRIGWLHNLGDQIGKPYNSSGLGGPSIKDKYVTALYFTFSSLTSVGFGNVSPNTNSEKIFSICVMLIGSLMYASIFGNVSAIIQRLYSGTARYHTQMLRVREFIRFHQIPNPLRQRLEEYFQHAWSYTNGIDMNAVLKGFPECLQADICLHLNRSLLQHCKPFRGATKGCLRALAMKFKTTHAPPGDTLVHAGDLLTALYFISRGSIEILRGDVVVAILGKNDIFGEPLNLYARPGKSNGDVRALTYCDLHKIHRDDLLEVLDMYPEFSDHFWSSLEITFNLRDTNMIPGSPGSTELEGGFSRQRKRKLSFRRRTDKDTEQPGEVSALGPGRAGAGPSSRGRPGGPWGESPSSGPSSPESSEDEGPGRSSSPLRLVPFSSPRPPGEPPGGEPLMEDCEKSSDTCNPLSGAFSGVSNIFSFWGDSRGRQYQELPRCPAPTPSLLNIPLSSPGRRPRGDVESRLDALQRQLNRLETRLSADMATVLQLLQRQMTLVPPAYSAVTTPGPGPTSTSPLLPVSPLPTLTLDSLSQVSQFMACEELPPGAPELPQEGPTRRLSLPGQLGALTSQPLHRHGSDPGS
smiles,measurement,setting,value
Cc1cc(Cn2ncn(-c3ccc(OC(F)(F)F)cc3)c2=O)cc(C)c1OC(C)(C)C(=O)O,Activity,Mus musculus [1],Active
same,Activity,C2C12 [2],Active
same,Activity,Mus musculus [3],Active
same,Activity,Mus musculus [4],Active
same,Activity,Mus musculus [5],Active
same,Activity,AML12,Active
same,Activity,COS7,inactive
same,Activity,THP-1,Active
same,inhibition (INH),[6],Active
same,Activity,HepG2,Active
same,Activity,Mus musculus [7],Active
same,Activity,Mus musculus [8],Active
same,Activity,Mus musculus [9],Active
same,Activity,Mus musculus [10],Active
same,EC50,[11],19.7 nM
same,Activity,Mus musculus [12],Active
same,Activity,Mus musculus [13],Active
same,Activity,Mus musculus [14],Active
same,Activity,Mus musculus [15],Active
same,Activity,Mus musculus [16],Active
same,Activity,Mus musculus [17],Active
same,Activity,Mus musculus [18],Active
same,Activity,Mus musculus [19],Active
same,Activity,C2C12 [20],Active
same,Activity,Mus musculus [21],Active
same,Activity,Mus musculus [22],Active
same,Activity,Mus musculus [23],Active
same,Activity,Mus musculus [24],Active

# Source: ChEMBL document CHEMBL5042526, “Design, Synthesis, and Biological Evaluation of Triazolone Derivatives as Potent PPARα/δ Dual Agonists for the Treatment of Nonalcoholic Steatohepatitis” (J Med Chem, 2022)
